“And” between values parts separate entries of the source, which are not always exact repeats. Equal values may be shown once.
Experiments:
[1] = target: T1, Plasmodium falciparum lysyl t-RNA synthetase (Pf-KRS1) (Plasmodium falciparum, UniProt Q8IDJ8); assay: Pf-KRS1 inhibition biochemical assay (Kinase-Glo, ATP depletion); conditions: read-out: Pf-KRS pIC50 (converted)
T1 construct: Pf KRS1-; made in house; host or cells: E. coli BL21 (DE3)
Text: Plasmodium falciparum Lysine tRNA Synthetase (KRS1) Biochemical Assay Methodology.
Lysine tRNA Synthetase (KRS1) is an enzyme which catalyses the esterification of L-Lysine to the appropriate transfer ribonucleic acid (tRNA), to form an aminoacyl-tRNA. Once the tRNA is charged, a ribosome transfers the amino acid from the tRNA onto a growing peptide, according to the genetic code.
The substrates of this reaction are L-lysine, and adenosine triphosphate (ATP), the overall reaction is: amino acid+tRNA+ATP→aminoacyl-tRNA+AMP+PPi
In this overall reaction AMP is adenosine monophosphate and PP; is inorganic pyrophosphate. The reaction progression in a biochemical assay can be tracked by the depletion of one of the substrates, in the case of this invention, ATP. This was done using the proprietary assay kit, Kinase Glo® Assay which is a luminescent kinase assay platform suitable for monitoring kinase activities using up to 10 μm ATP which is commercially available from the Promega Corporation of Madison, Wis., USA. The Kinase-Glo® Assay was performed in a single well of a multiwell plate by adding a volume of Kinase-Glo® Reagent equal to the volume of a completed kinase reaction and measuring luminescence. The resulting luminescent signal is correlated with the amount of ATP present and is inversely correlated with the amount of kinase activity. As such by use of this assay methodology a reduction of the luminescent signal is relative to the reduction in ATP as the reaction progresses. A compound which inhibits the action of KRS will show no drop in the luminescent signal from assay controls.
Assays were performed using both Plasmodium falciparum and human KRS to assess any selectivity of various test compounds.
Test compounds were solubilized in DMSO at a top concentration of 10 mM and serially diluted 1 in 3 to achieve a range of final assay concentrations of 50 μM to 2.5 nM in 10 μl reaction volume.
KRS was diluted to a working concentration of 75 nM in assay buffer (25 mM HEPES, 25 mM KOH, 10 mM MgCl2.6H2O, 50 mM KCl), and the following ‘Master Mix’ prepared in assay buffer: 0.1 mg/ml BSA, 250 μM DTT, 200 μM Spermine, 0.05% NP-40, ATP 3 μM for Pf KRS1 (4 μM for Hs KRS1), 0.4 mg/ml tRNA from Yeast, 60 μM L-Lysine, 0.5 U/ml Pyrophosphatase.
Plates were incubated at room temperature for 5 h for Pf KRS (2.5 hrs for HsKRS), then the assay stopped by the addition of 10 μl of The Kinase-Glo® Reagent Assay was performed in a single well of a multiwell plate by adding a volume of Kinase-Glo® Reagent which is commercially available from the Promega Corporation of Madison, Wis., USA. The plates were incubated in the dark for a further 15 mins before being read for luminescence on a BMG PHERAstar® FSX plate reader which is a multi-mode reader for use in high-throughput screening available from BMG Labtech if Cary, N.C., USA. Data were analysed by calculating the percentage inhibition compared to the maximum and minimum assay controls. Concentration effect curves were fitted using nonlinear regression within ActivityBase and IC50 values were determined using standard protocols.

[2] = test system: Plasmodium falciparum strain 3D7; assay: Plasmodium falciparum 3D7 in vitro growth inhibition (SYBRgreen I); assay type: cell-based; conditions: for EC50: Plasmodium falciparum, 3D7, read-out: pEC50 for Pf 3D7 (converted)
Procedure: Parasite Cultures and Cytotoxicity Assay Methodology for Plasmodium falciparum. […] Growth inhibition of the Plasmodium falciparum cultures was quantified in a 10-point dose response curve with a 1 in 3 dilution series from a top assay concentration of 50 μM. This 384 well plate based fluorescence assay utilises the binding of SYBRgreen I (Thermo Fisher Scientific/Invitrogen cat. no. S7585) to double stranded DNA, which greatly increases the fluorescent signal at 528 nm after excitation at 485 nm. Mefloquine was used as a drug control to monitor the quality of the assay (Z′=0.6 to 0.8, where Z′ is a measure of the discrimination between the positive and negative controls on a screen plate). Dose-response curves were determined from a minimum of 3 independent experiments. Compound bioactivity was expressed as EC50, the effective concentration of compound causing 50% parasite death.

Cryptosporidium parvum = assay: In vitro Crytosporidium inhibition assay; assay type: cell-based; conditions: Cryptosporidium parvum; read-out: Cryptosporidium parvum pEC50 (converted)
Text: Assay Method for Measurement of In Vitro Inhibition of Crytosporidium.
These experiments were run in accordance with the method of Besssoff et. al. Antimicrob. Agents Chemother. 2013, 57:1804-1814. Results from these experiments are provided in the Experimental Results hereinafter.

Hep G2 = Hep G2 in-vitro cytotoxicity assay; assay type: cell-based; conditions: Homo sapiens, HepG2, read-out: Hs HEPG2 pEC50 (converted)
Text: In-vitro cytotoxicity studies can be carried out using Hep G2 (Human hepatocyte carcinoma, HPACC cat. no. 85011430) used as indicators for general mammalian cell toxicity. Hep G2 in-vitro cytotoxicity can be assessed using the assay procedure as described in “Use of a human-derived liver cell line for the detection of cytoprotective, antigenotoxic and cogenotoxic agents”, Volker Mersch-Sundermann, Siegfried Knasmüller, Xin-jiang Wu, Firouz Darroudi, Fekadu Kassie. J. Tox 198 (2004) 329-340) the contents of which are incorporated herein by reference.

T1 sequence (Q8IDJ8 entry or part of it, looked up, natural form): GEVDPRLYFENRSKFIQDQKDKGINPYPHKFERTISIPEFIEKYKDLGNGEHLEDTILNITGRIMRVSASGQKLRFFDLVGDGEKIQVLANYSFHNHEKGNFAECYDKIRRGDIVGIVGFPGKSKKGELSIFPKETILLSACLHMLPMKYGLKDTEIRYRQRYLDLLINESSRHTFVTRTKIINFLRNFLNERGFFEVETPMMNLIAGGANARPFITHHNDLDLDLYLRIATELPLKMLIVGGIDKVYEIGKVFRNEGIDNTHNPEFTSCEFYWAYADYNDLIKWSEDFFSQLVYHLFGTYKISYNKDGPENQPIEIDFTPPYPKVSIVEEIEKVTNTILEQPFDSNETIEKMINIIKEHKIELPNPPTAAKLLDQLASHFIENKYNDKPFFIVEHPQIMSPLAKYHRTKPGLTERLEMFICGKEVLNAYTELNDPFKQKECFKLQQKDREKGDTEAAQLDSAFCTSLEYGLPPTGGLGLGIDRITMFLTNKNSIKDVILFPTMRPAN

Row | SMILES | IC50 [1] | EC50 [2] | EC50 (Cryptosporidium parvum) | EC50 (Hep G2) | pEC50 for Pf 3D7 [2]
1 | O=C(NCC1CCCCC1)c1cc(=O)c2ccc(O)cc2o1 [Example 4, N-(cyclohexylmethyl)-7-hydroxy-4-oxo-chromene-2-carboxamide] | 1000 nM | 1260 nM | 1580 nM | 50100 nM | –
2 | O=C(NCC1CCC(F)(F)CC1)c1cc(=O)c2ccccc2o1 [Example 21, N-[(4,4-difluorocyclohexyl)methyl]-4-oxo-chromene-2-carboxamide] | – | – | 7940 nM | 50100 nM | –
3 | O=C(NCC1(O)CCCCC1)c1cc(=O)c2ccccc2o1 [Example 27, N-[(1-hydroxycyclohexyl)methyl]-4-oxo-chromene-2-carboxamide] | 126 nM | 251 nM | 316 nM | 50100 nM | –
4 | O=C(NCC1(CO)CCCCC1)c1cc(=O)c2cc(F)ccc2o1 [Example 40, 6-fluoro-N-[[1-(hydroxymethyl)cyclohexyl]methyl]-4-oxo-chromene-2-carboxamide] | 251 nM | 794 nM | 1580 nM | 50100 nM | –
5 | C[C@H](NC(=O)c1cc(=O)c2cc(F)ccc2o1)C1CCCCC1 [Example 49A, (S)—N-(1-cyclohexylethyl)-6-fluoro-4-oxo-4H-chromene-2-carboxamide] | 126 nM | 398 nM | 158 nM | – | –
6 | O=C(NCC1(O)CCC(F)(F)CC1)c1cc(=O)c2cc(F)cc(F)c2o1 [Example 56, N-((4,4-difluoro-1-hydroxycyclohexyl)methyl)-6,8-difluoro-4-oxo-4H-chromene-2-carboxamide] | 316 nM | 1580 nM | 7940 nM | – | –
7 | O=C(NCC1(O)CCC(F)(F)CC1)c1cc(=O)c2cc(O)ccc2o1 [Example 57, N-[(4,4-difluoro-1-hydroxy-cyclohexyl)methyl]-6-hydroxy-4-oxo-chromene-2-carboxamide] | 126 nM | 158 nM | 5010 nM | – | –
8 | O=C(O)CC1(CNC(=O)c2cc(=O)c3cc(F)ccc3o2)CCCCC1 [Example 57L, 2-(1-((6-fluoro-4-oxo-4H-chromene-2-carboxamido)methyl)cyclohexyl)acetic acid] | – | 794 nM | 5010 nM | 50100 nM | –
9 | O=C(NCC1CCCCC1)c1cc(=O)c2cccc(O)c2o1 [Example 67, N-(cyclohexylmethyl)-8-hydroxy-4-oxo-4H-chromene-2-carboxamide] | 63.1 nM | 63.1 nM | 316 nM | – | –
10 | COc1cc2c(=O)cc(C(=O)NCC3CCCCC3)oc2cc1F [Example 71, N-(cyclohexylmethyl)-7-fluoro-6-methoxy-4-oxo-4H-chromene-2-carboxamide] | 398 nM | 3160 nM | 3980 nM | – | –
11 | O=C(NCC1(O)CCCCC1)c1cc(=O)c2cc(Cl)cc(O)c2o1 [Example 73, 6-Chloro-8-hydroxy-N-((1-hydroxycyclohexyl)methyl)-4-oxo-4H-chromene-2-carboxamide] | 50.1 nM | – | 39.8 nM | 20000 nM | –
12 | O=C(NCC1CCC(F)(F)CC1)c1cc(=O)c2ccc(F)c(O)c2o1 [Example 79, N-((4,4-difluorocyclohexyl)methyl)-7-fluoro-8-hydroxy-4-oxo-4H-chromene-2-carboxamide] | 200 nM | – | 794 nM | 50100 nM | –
13 | Cc1c(C(=O)NCC2CCCCC2)oc2ccc(F)cc2c1=O [Example 91, N-(cyclohexylmethyl)-6-fluoro-3-methyl-4-oxo-4H-chromene-2-carboxamide] | 631 nM | 5010 nM | 2510 nM | – | 5.2
14 | Nc1cc(F)cc2c(=O)cc(C(=O)NCC3(O)CCC(F)(F)CC3)oc12 [Example 93, 8-amino-N-[(4,4-difluoro-1-hydroxy-cyclohexyl)methyl]-6-fluoro-4-oxo-chromene-2-carboxamide] | 50.1 nM and 63.1 nM | – | 501 nM | 12600 nM | –

From patent US11485720B2, “Anti-infective agents” (University of Dundee, priority 2016, dated 2022)
